In patent US20150250892A1, “BIODEGRADABLE POLYMERIC BUFFERS” (Northeastern University, priority 2012, published 2015):
pIC50: −log10 of the molar value.

Experiments:
[1] = system: SKOV3 cells; assay: Cytotoxicity evaluation of drug loaded HA nanoparticles on ovarian cancer cells; assay type: cell-based; details: free drug
Excerpt: 9) Cytotoxicity Evaluation of Drug Loaded HA Nanoparticles on Ovarian Cancer Cells: […]

[2] = of the free drug; cited from earlier work
[3] = system: MDA-MB-231 breast cancer cell lines; assay: In vitro cell uptake of free doxorubicin (DOX) and DOX loaded HA polymers; assay type: cell-based; details: 20 μM, 1 h incubation, fluorescence microscopy
Protocol: In order to determine the pH altering effects of the hyaluronic acid-lipid modified polymers and cellular trafficking of drugs, a model fluorescent drug, doxorubicin, was encapsulated into the unmodified and modified HA polymers and tested on MDA-MB-231 breast cancer cell lines.
After 1 h of incubation, the cells were washed thrice with PBS and the uptake of DOX in the cells was observed using a fluorescence microscope.

[4] = Homo sapiens, SK-OV-3, 48 hour timepoint

Row | Structure (SMILES) | pIC50 [1, 4] | logP [2] | uptake of DOX in the nucleus [3] | pIC50 ([1]; 48 hour timepoint)
1 | COc1cc([C@@H]2c3cc4c(cc3[C@@H](O[C@@H]3O[C@@H]5CO[C@@H](C)O[C@H]5[C@H](O)[C@H]3O)[C@H]3COC(=O)[C@H]23)OCO4)cc(OC)c1O [Etoposide] | 5.34 | – | – | –
2 | COc1cccc2c1C(=O)c1c(O)c3c(c(O)c1C2=O)C[C@@](O)(C(=O)CO)C[C@@H]3O[C@H]1C[C@H](N)[C@H](O)[C@H](C)O1 [Doxorubicin] | – | −0.5 | much lower in the nucleus | 5.24
3 | CC(=O)O[C@H]1C(=O)[C@@]2(C)[C@H]([C@H](OC(=O)c3ccccc3)[C@]3(O)C[C@H](OC(=O)[C@H](O)[C@@H](NC(=O)c4ccccc4)c4ccccc4)C(C)=C1C3(C)C)[C@]1(OC(C)=O)CO[C@@H]1C[C@@H]2O [Paclitaxel] | 8.00 | – | – | –
4 | CC[C@@]1(O)C(=O)OCc2c1cc1n(c2=O)Cc2cc3c(CN(C)C)c(O)ccc3nc2-1 [Topotecan] | 6.66 | 0.8 | – | –
5 | CC[C@@]1(O)C(=O)OCc2c1cc1n(c2=O)Cc2cc3ccccc3nc2-1 [Camptothecin] | 6.09 | – | – | –
6 | CC(=O)[C@]1(O)Cc2c(O)c3c(c(O)c2[C@@H](O[C@H]2C[C@H](N)[C@H](O)[C@H](C)O2)C1)C(=O)c1ccccc1C3=O [Idarubicin] | 5.42 | 0.2 | – | –
